# Measurements reported in patent US11584742B2 (MASARYKOVA UNIVERZITA, priority 2018, dated 2023).
# Assays:
# MRE11 = molecular target: T1, MRE11 (Homo sapiens, UniProt P49959); experiment: HTS nuclease assay (cleavage of CY5/BBQ-quenched 5' overhang DNA substrate); format: biochemical; conditions: in vitro HTS nuclease assay; 18 nM MRE11, 40 nM DNA substrate; analysis at t=4 h
# T1 sequence (P49959 1-708): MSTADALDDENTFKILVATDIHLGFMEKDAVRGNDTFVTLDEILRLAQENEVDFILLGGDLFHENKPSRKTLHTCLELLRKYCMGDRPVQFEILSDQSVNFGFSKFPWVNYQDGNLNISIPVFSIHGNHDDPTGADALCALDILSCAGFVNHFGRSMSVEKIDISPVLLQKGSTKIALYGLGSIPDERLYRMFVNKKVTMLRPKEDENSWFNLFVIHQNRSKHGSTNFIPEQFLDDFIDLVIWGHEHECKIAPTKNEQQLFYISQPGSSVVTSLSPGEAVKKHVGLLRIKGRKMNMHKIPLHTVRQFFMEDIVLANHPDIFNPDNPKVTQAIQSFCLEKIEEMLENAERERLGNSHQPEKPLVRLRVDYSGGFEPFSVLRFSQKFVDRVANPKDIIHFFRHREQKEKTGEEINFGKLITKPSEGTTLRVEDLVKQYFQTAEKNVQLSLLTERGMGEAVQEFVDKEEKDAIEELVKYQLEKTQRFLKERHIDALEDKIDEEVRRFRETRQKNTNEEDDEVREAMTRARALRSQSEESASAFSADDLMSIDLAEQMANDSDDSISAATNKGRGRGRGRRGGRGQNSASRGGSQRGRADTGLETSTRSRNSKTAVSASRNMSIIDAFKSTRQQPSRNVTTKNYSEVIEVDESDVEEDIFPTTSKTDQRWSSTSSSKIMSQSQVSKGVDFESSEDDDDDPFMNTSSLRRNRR
# Protocol: DNA Substrate Preparation
# The DNA substrate is prepared by mixing the oligonucleotides listed below in a 1:1 ratio to reach a final concentration of 6 μM in a buffer containing 50 mM Tris pH 7.5, 100 mM NaCl and 8 mM MgCl2.
# This substrate is a 5′ overhang, which is a preferred substrate of MRE11. […] The fluorescence increases upon substrate cleavage by MRE11, when separation of the two labels occur.
# The conditions of the assay are as follows:
# Total reaction volume: 5 μL
# DNA substrate concentration in the reaction: 40 nM
# Inhibitor concentration range tested: 7 nM-50 μM
# Each plate contains a series of high and low signal control wells, where no compound is added:
# High signal: MRE11+DNA substrate
# Low signal: DNA substrate only
# These are used during data evaluation.
# Two extra assay controls:
# 1) To check whether unwinding of DNA by the compounds alone occurs.
# The DNA substrate [CY5+BBQ(650)] is mixed with the compounds with no protein present.
# The CY5 single stranded oligo is mixed with the compounds with no protein present.
# The layout of the plates is created by the in-house software (CZ-Openscreen Prague) and this information is transferred to the robotic HTS station.
# The reaction is started by the addition of DNA and the reaction time is counted from that moment, including a 15 min delay. Ten timepoints are measured:
# The assay data analysis was performed at t=4 h. This corresponds to the time when the reaction is close to its maximum.
# The data analysis was performed using the in-house software to obtain IC50 for each compound.
# DR-GFP U2OS cells = experiment: HR assay (GFP fluorescence after I-SceI transfection, flow cytometry); format: cell-based; conditions: Homo sapiens, inhibitor at 25 μM, 72 hours after transfection
# Protocol: DR-GFP U2OS cells (Methods in Molecular Biology 2012, 920, 379.) were transfected with 2.5 μg of I-SceI-expressing pCAGGS vector and treated with the inhibitors at 25 μM concentration. 72 hours after the transfection, the cells were trypsinized and resuspended in 3% BSA in PBS. GFP fluorescence detection was carried out using a BD FACSVerse flow cytometer and data analyzed with FlowJo software.
SMILES,IC50 (MRE11),inhibition at 25 µM (DR-GFP U2OS cells)
"N#C/C(=C\c1ccc([N+](=O)[O-])cc1)C(=O)Nc1nc(-c2ccccc2)cs1 [Preparative Example 209, (E)-2-cyano-3-(4-nitrophenyl)-N-(4-phenylthiazol-2-yl)acrylamide]",10000 to 90000 nM,50 to 75%
"N#C/C(=C\c1ccc(O)c(O)c1)C(=O)Nc1nc(-c2ccc(-c3ccccc3)cc2)cs1 [Preparative Example 164, (E)-N-(4-([1,1′-biphenyl]-4-yl)thiazol-2-yl)-2-cyano-3-(3,4-dihydroxyphenyl)acrylamide]",2000 to 10000 nM,> 75%
"N#C/C(=C\c1ccc(O)c(O)c1)C(=O)Nc1nc(-c2ccc3ccccc3c2)cs1 [Preparative Example 163, (E)-2-cyano-3-(3,4-dihydroxyphenyl)-N-(4-(naphthalen-2-yl)thiazol-2-yl)acrylamide]",< 2000 nM,> 75%
"N#C/C(=C\c1ccc(O)c(O)c1)C(=O)Nc1nc(-c2ccc(C#N)s2)cs1 [Preparative Example 183, (E)-2-cyano-N-(4-(5-cyanothiophen-2-yl)thiazol-2-yl)-3-(3,4-dihydroxyphenyl)acrylamide]",< 2000 nM,< 50%
"CC(=O)Nc1cccc(/C=C(\C#N)C(=O)Nc2nc(-c3ccccc3)cs2)c1 [Preparative Example 207, 3-(3-acetamidophenyl)-2-cyano-N-(4-phenylthiazol-2-yl)acrylamide]",2000 to 10000 nM,50 to 75%
N#C/C(=C\c1ccc(O)c(O)c1)C(=O)Nc1nc(-c2cccnn2)cs1 [Preparative Example 186],< 2000 nM,< 50%
"N#C/C(=C\c1ccccc1F)C(=O)Nc1nc(-c2ccccc2)cs1 [Preparative Example 206, (E)-2-cyano-3-(2-fluorophenyl)-N-(4-phenylthiazol-2-yl)acrylamide]",2000 to 10000 nM,< 50%
"N#C/C(=C\c1ccc(O)c(O)c1)C(=O)Nc1nc(-c2cc(F)cc(F)c2)cs1 [Preparative Example 185, (E)-2-cyano-N-(4-(3,5-difluorophenyl)thiazol-2-yl)-3-(3,4-dihydroxyphenyl)acrylamide]",< 2000 nM,50 to 75%
"N#C/C(=C\c1ccc(O)c(O)c1)C(=O)Nc1nc(-c2cc3ccccc3o2)cs1 [Preparative Example 173, (E)-N-(4-(benzofuran-2-yl)thiazol-2-yl)-2-cyano-3-(3,4-dihydroxyphenyl)acrylamide]",< 2000 nM,> 75%
"N#C/C(=C\c1ccc(O)c(O)c1)C(=O)Nc1nc(-c2ccccc2)c(-c2ccccc2)s1 [Preparative Example 176, (E)-2-cyano-3-(3,4-dihydroxyphenyl)-N-(4,5-diphenylthiazol-2-yl)acrylamide]",< 2000 nM,> 75%
"N#C/C(=C\c1ccc(O)c(O)c1)C(=O)Nc1nc(-c2ccccc2)c(Br)s1 [Preparative Example 196, (E)-N-(5-bromo-4-phenylthiazol-2-yl)-2-cyano-3-(3,4-dihydroxyphenyl)acrylamide]",< 2000 nM,50 to 75%
"N#C/C(=C\c1ccc(O)c(O)c1)C(=O)Nc1nc(-c2cccc(Br)c2)cs1 [Preparative Example 169, (E)-N-(4-(3-bromophenyl)thiazol-2-yl)-2-cyano-3-(3,4-dihydroxyphenyl)acrylamide]",< 2000 nM,> 75%
"Cc1cc(C(C)(C)C)cc(C)c1-c1csc(NC(=O)/C(C#N)=C/c2ccc(O)c(O)c2)n1 [Preparative Example 246, (E)-N-(4-(4-(tert-butyl)-2,6-dimethylphenyl)thiazol-2-yl)-2-cyano-3-(3,4-dihydroxyphenyl)acrylamide]",< 2000 nM,> 75%
"COc1ccc(-c2csc(NC(=O)/C(C#N)=C/c3ccc(O)c(O)c3)n2)cc1O [Preparative Example 166, (E)-2-cyano-3-(3,4-dihydroxyphenyl)-N-(4-(3-hydroxy-4-methoxyphenyl)thiazol-2-yl)acrylamide]",< 2000 nM,> 75%
"N#CC(=Cc1c[nH]cn1)C(=O)Nc1nc(-c2ccccc2)cs1 (racemic) [Preparative Example 214, (E)- and (Z)-2-cyano-3-(1H-imidazol-4-yl)-N-(4-phenylthiazol-2-yl)acrylamide]",10000 to 90000 nM,< 50%
"N#C/C(=C\c1ccc(C(=O)O)cc1)C(=O)Nc1nc(-c2ccccc2)cs1 [Preparative Example 204, (E)-4-(2-cyano-3-oxo-3-((4-phenylthiazol-2-yl)amino)prop-1-en-1-yl)benzoic acid]",2000 to 10000 nM,< 50%
"CC(C)(O)c1csc(NC(=O)/C(C#N)=C/c2ccc(O)c(O)c2)n1 [Preparative Example 167, (E)-2-cyano-3-(3,4-dihydroxyphenyl)-N-(4-(2-hydroxypropan-2-yl)thiazol-2-yl)acrylamide]",2000 to 10000 nM,< 50%
"N#C/C(=C\c1ccc(O)c(O)c1)C(=O)Nc1nc(-c2ccc(Br)s2)cs1 [Preparative Example 219, (E)-N-(4-(5-bromothiophen-2-yl)thiazol-2-yl)-2-cyano-3-(3,4-dihydroxyphenyl) acrylamide]",< 2000 nM,> 75%
"N#C/C(=C\c1ccc(O)c(-c2ccccc2)c1)C(=O)Nc1nc(-c2ccccc2)cs1 [Preparative Example 211, (E)-2-cyano-3-(6-hydroxy-[1,1′-biphenyl]-3-yl)-N-(4-phenylthiazol-2-yl)acrylamide]",10000 to 90000 nM,< 50%
"N#C/C(=C\c1cc(F)c(O)c(F)c1)C(=O)Nc1nc(-c2ccccc2)cs1 [Preparative Example 212, (E)-2-cyano-3-(3,5-difluoro-4-hydroxyphenyl)-N-(4-phenylthiazol-2-yl)acrylamide]",10000 to 90000 nM,< 50%
"N#C/C(=C\c1ccc(O)c(O)c1)C(=O)Nc1nc(C23CC4CC(CC(C4)C2)C3)cs1 [Preparative Example 174, (E)-N-(4-((1S,3s)-adamantan-1-yl)thiazol-2-yl)-2-cyano-3-(3,4-dihydroxyphenyl)acrylamide]",2000 to 10000 nM,50 to 75%
"N#C/C(=C\c1ccc(O)c(O)c1)C(=O)Nc1nc(-c2ccccc2)c(Cl)s1 [Preparative Example 195, (E)-N-(5-chloro-4-phenylthiazol-2-yl)-2-cyano-3-(3,4-dihydroxyphenyl)acrylamide]",< 2000 nM,50 to 75%
"N#C/C(=C\c1cc(Cl)c(O)c(Cl)c1)C(=O)Nc1nc(-c2ccc(Br)cc2)cs1 [Preparative Example 165, (E)-N-(4-(4-bromophenyl)thiazol-2-yl)-2-cyano-3-(3,5-dichloro-4-hydroxyphenyl)acrylamide]",< 2000 nM,50 to 75%
"N#C/C(=C\c1ccc(O)c(O)c1)C(=O)Nc1nc(-c2cccc(OC(F)(F)F)c2)cs1 [Preparative Example 171, (E)-2-cyano-3-(3,4-dihydroxyphenyl)-N-(4-(3-(trifluoromethoxy)phenyl)thiazol-2-yl)acrylamide]",2000 to 10000 nM,50 to 75%
"N#C/C(=C\c1ccc(O)c(O)c1)C(=O)Nc1nc(-c2ccncc2)cs1 [Preparative Example 188, (E)-2-cyano-3-(3,4-dihydroxyphenyl)-N-(4-(pyridin-4-yl)thiazol-2-yl)acrylamide]",< 2000 nM,50 to 75%
"C#Cc1ccc(-c2csc(NC(=O)/C(C#N)=C/c3ccc(O)c(O)c3)n2)cc1 [Preparative Example 197, (E)-2-cyano-3-(3,4-dihydroxyphenyl)-N-(4-(4-ethynylphenyl)thiazol-2-yl)acrylamide]",< 2000 nM,> 75%
